Laboratory results reported in ChEMBL document CHEMBL2203135, “Novel progesterone receptor modulators: 4-aryl-phenylsulfonamides” (Bioorg Med Chem Lett, 2012).
Activity calls are given as the source filed them. No cut-off for these calls is given here.

Tests used:
Progesterone receptor [1] = target: T1, Progesterone receptor (Homo sapiens, UniProt P06401); experiment: Antagonist activity at progesterone receptor by cellular reporter gene assay; assay type: functional
T1 sequence (P06401 whole entry): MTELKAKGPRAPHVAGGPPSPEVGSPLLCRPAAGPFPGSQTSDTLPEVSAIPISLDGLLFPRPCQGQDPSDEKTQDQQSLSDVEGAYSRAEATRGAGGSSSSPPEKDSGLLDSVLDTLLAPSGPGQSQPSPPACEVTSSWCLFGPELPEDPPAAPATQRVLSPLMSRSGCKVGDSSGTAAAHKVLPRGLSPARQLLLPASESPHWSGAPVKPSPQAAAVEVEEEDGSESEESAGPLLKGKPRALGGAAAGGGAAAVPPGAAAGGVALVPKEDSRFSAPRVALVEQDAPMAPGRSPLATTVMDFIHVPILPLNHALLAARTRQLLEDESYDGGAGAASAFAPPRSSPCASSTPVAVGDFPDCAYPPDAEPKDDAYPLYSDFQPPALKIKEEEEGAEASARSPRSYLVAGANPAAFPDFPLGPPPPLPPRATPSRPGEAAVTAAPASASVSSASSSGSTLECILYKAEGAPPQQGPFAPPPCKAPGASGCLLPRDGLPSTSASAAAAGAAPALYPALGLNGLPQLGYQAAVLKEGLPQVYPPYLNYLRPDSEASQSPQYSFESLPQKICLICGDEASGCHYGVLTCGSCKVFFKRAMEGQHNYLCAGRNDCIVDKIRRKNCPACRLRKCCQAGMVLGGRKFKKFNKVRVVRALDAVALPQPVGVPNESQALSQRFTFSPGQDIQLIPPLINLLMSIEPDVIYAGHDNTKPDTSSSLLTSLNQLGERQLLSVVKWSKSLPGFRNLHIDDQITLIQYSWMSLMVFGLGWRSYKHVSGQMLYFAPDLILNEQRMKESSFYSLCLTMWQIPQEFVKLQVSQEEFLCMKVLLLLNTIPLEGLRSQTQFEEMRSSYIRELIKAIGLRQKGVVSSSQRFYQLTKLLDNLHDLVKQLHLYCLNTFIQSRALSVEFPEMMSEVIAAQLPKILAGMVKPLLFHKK

[2] = target: T2, Androgen receptor (Homo sapiens) (UniProt P10275); experiment: Agonist activity at androgen receptor by cellular reporter gene assay; assay type: functional
T2 sequence (whole entry): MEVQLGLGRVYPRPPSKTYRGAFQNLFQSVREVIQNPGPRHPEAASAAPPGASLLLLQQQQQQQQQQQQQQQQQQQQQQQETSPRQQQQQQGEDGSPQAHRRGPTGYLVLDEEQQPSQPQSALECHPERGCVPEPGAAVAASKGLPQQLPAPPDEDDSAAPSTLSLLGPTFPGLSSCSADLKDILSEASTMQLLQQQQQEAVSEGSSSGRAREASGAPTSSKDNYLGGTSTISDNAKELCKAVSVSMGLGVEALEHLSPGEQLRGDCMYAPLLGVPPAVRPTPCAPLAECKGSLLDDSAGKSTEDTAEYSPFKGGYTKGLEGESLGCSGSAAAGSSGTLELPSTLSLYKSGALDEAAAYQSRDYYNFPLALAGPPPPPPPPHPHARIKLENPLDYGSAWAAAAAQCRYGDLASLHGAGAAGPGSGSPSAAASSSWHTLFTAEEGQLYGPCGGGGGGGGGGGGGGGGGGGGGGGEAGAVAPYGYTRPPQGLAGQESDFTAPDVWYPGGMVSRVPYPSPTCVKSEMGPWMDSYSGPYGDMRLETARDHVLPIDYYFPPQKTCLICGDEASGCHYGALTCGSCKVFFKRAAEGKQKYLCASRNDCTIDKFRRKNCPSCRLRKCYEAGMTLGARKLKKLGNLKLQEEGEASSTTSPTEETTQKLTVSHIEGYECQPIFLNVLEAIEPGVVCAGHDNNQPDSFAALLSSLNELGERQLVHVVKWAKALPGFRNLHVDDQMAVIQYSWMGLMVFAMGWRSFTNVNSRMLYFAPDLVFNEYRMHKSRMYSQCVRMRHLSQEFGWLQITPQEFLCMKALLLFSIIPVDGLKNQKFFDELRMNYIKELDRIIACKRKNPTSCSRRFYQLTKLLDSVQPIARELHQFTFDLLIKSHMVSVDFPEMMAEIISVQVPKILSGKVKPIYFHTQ

Progesterone receptor [3] = target: T1, Progesterone receptor; experiment: Antagonist activity against progesterone receptor in human T47D cells by alkaline phosphatase assay; assay type: functional, cell-based
Plasma = experiment: Average drug concentration in ovariectomized rhesus monkey plasma at 5 mg/kg/day, po; assay type: ADME, organism-based, Macaca mulatta; set-up: route oral; conditions: in vivo
[4] = Cmax in in ovariectomized rhesus monkey at 5 mg/kg/day, po; assay type: ADME, organism-based, Macaca mulatta; set-up: dose 5 mg/kg/day, route oral; conditions: female, in vivo
[5] = AUC (0 to infinity) in rat at 2 mg/kg, iv; assay type: ADME, organism-based; set-up: time infinity, dose 2 mg/kg, route intravenous; conditions: plasma
[6] = Half life in rat at 2 mg/kg, iv; assay type: ADME, organism-based; set-up: dose 2 mg/kg, route intravenous; conditions: in vivo
[7] = Clearance in cynomolgus monkey at 2 mg/kg, iv; assay type: ADME, organism-based, Macaca fascicularis; set-up: dose 2 mg/kg, route intravenous; conditions: in vivo
[8] = Fraction unbound in rat plasma; assay type: ADME, cell-free
Glucocorticoid receptor = target: T3, Glucocorticoid receptor (Homo sapiens, UniProt P04150); experiment: Agonist activity at glucocorticoid receptor by cellular reporter gene assay
T3 sequence (P04150 whole entry): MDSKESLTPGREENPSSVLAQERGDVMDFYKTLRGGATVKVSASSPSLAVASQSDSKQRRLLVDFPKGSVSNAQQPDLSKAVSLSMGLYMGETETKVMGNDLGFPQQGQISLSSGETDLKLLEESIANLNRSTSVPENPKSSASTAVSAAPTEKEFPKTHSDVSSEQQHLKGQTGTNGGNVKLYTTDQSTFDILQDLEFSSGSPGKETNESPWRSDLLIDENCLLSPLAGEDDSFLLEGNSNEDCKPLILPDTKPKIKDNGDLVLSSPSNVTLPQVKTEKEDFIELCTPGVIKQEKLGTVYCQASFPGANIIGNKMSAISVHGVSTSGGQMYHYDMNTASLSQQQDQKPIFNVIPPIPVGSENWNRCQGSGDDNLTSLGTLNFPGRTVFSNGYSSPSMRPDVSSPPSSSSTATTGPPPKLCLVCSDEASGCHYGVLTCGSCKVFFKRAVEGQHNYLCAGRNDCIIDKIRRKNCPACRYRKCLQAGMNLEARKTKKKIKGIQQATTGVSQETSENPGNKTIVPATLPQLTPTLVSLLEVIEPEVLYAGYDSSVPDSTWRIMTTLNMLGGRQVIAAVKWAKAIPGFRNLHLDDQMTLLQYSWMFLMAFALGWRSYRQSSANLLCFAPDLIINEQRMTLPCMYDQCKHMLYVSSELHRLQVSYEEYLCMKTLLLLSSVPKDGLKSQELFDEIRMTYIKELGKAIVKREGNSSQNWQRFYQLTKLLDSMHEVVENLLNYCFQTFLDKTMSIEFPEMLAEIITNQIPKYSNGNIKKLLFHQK

[9] = Half life in cynomolgus monkey at 2 mg/kg, iv; assay type: ADME, organism-based, Macaca fascicularis; set-up: dose 2 mg/kg, route intravenous; conditions: in vivo
[10] = Cmax in cynomolgus monkey at 2 mg/kg, po; assay type: ADME, organism-based, Macaca fascicularis; set-up: dose 2 mg/kg, route oral; conditions: in vivo

IC50 (Progesterone receptor [1])	Activity [2]	IC50 (Progesterone receptor [3])	Cave (Plasma)	Cmax [4]	AUC(0-inf) [5]	half-life [6]	clearance [7]	fraction unbound [8]	IC50 (Glucocorticoid receptor)	half-life [9]	Cmax [10]	SMILES
0.3 nM	inactive	0.3 nM	–	–	–	–	–	–	–	–	–	COC[C@]1(OC)CC[C@H]2[C@@H]3CCC4=CC(=O)CCC4=C3[C@@H](c3ccc(/C=N/O)cc3)C[C@@]21C [ASOPRISNIL]
11.7 nM	inactive	12 nM	3.6 µM	8.8 µM	13000 ng·h/mL	120 min	2 mL/min/kg	0.019	> 10 µM	168 min	5100 ng/mL	CCS(=O)(=O)Nc1cc(F)c(-c2ccc(C#N)n2C)c(F)c1
